According to patent US12350266B2, “FGFR2 inhibitors for the treatment of cholangiocarcinoma” (Janssen Pharmaceutica NV, priority 2017, dated 2025):

What was measured:
[1] = tested on: advanced cholangiocarcinoma patients; test: LUC2001 (NCT02699606) phase 2a study: safety (adverse events)
Description: (§1) LUC2001 is an open-label, multicenter, phase 2a study including advanced cholangiocarcinoma subjects with FGFR alterations, based on FoundationOne testing, who failed at least 1 prior systemic treatment. The primary endpoint is objective response rate (ORR; by Response Evaluation Criteria in Solid Tumors (RECIST) version 1.1). The secondary endpoints are disease control rate (DCR), safety and pharmacokinetics. Disease is evaluated every 8 weeks until disease progression (PD). […] The dose of the drug may be modified, delayed, or terminated based on guidelines in the protocol.

[2] = compared with published Part 1 results (Tabernero 2015)
[3] = tested on: patients with FGFR-aberrant cholangiocarcinoma; test: Clinical trial NCT01703481: safety; assay type: in vivo, human; conditions: compared with published Part 1 results (Tabernero 2015)
Description: Eleven patients with FGFR-aberrant cholangiocarcinoma were treated at 9 mg QD (n=1, Part 3) or 10 mg intermittent (n=10, Part 4).

[4] = tested on: FGFR-aberrant cholangiocarcinoma
Description: Sparse samples were collected in Parts 3 and 4.

[5] = tested on: advanced cholangiocarcinoma with FGFR alterations; conditions: 11 subjects dosed with 8 mg qd; snapshot 20 Mar. 2018
Description: as §1

[6] = 8 mg qd, most common AEs (>30%)

COc1cc(OC)cc(N(CCNC(C)C)c2ccc3ncc(-c4cnn(C)c4)nc3c2)c1 [erdafitinib, N-(3,5-dimethoxy-phenyl)-N′-(1-methylethyl)-N-[3-(1-methyl-1H-pyrazol-4-yl)quinoxalin-6-yl]ethane-1,2-diamine]
AE diarrhea (subjects/dosed) [1, 6]: 4/11
AE dry mouth (subjects/dosed) [1, 6]: 7/11
AE hyperphosphatemia (subjects/dosed) [1, 6]: 8/11
AE nail disorder (subjects/dosed) [1, 6]: 4/11
AE palmar-plantar erythrodysaesthesia syndrome (subjects/dosed) [1, 6]: 4/11
AE stomatitis (subjects/dosed) [1, 6]: 7/11
AE leading to treatment discontinuation or death ([1]; 11 subjects, 8 mg qd): no AE led to treatment discontinuation or death
subjects who experienced AEs ([1]; 11 subjects, 8 mg qd): All subjects experienced AEs
subjects with AEs leading to drug interruption ([1]; 11 subjects, 8 mg qd): all had AEs leading to drug interruption
safety profile (conclusion) ([1]; patients with FGFR-aberrant advanced cholangiocarcinoma): tolerable safety profile
PK data [2]: consistent with those from the previously published results from Part 1 of this study
Safety data [3]: consistent with those from the previously published results from Part 1 of this study
partial responses, fusion FGFR2-BICC1 ([4]; number of patients (n)): 1
partial responses, fusion FGFR2-CCAR1 ([4]; number of patients (n)): 1
partial responses, patients with FGFR translocations ([4]; number of patients among the 3 partial responses): 2
PD (disease progression), number of subjects [5]: 2
